Test results reported in PMC8698759, “Gold(I) Complexes Bearing Alkylated 1,3,5-Triaza-7-phosphaadamantane Ligands as Thermoresponsive Anticancer Agents in Human Colon Cells” (Biomedicines, 2021).
Like-named read-outs stand apart in the source and are kept apart here.

Tests used:
Recombinant Human TrxR1 = biological target: T1, Recombinant Human TrxR1 (Homo sapiens, UniProt Q16881); test: Thioredoxin reductase 1 (TrxR1) activity assay; format: biochemical; settings: auranofin 25 µM; 3a and 3b at IC50 concentrations
T1 construct: purchased Sigma-Aldrich SRP6081
T1 sequence (Q16881 151-649 limits assumed): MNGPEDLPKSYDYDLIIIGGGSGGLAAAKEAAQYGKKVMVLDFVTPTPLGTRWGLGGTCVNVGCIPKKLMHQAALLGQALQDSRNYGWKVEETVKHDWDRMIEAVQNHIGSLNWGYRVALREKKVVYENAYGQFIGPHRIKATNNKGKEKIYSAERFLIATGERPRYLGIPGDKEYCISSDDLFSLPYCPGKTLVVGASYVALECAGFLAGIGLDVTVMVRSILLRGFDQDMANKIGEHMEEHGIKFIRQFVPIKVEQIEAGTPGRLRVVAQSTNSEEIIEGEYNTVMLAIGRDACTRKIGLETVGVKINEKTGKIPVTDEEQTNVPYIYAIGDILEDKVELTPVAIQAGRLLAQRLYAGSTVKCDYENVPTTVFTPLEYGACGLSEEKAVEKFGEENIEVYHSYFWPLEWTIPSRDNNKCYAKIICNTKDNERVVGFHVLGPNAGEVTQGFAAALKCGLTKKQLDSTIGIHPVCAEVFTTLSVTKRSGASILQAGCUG
Method: Recombinant Human TrxR1 (Sigma-Aldrich SRP6081, St. Louis, MO, USA) was incubated in a 96 well plate with different concentration of Au complex previously dissolved in 25 μL of PBS at pH 7.4. The cell solution was incubated in shake motion for 5 min at 37 °C. After incubation time, procedure in Thioredoxin Reductase Assay Kit (Sigma-Aldrich CS0170, St. Louis, MO, USA) was followed. Finally, reaction was started by adding 6 μL DNTB and absorbance at 405 nm was recorded every 30 s for 22 min as a measure of Thioredoxin Reductase Activity.

Caco-2/TC7 cells = test: MTT cytotoxicity / antiproliferative assay on Caco-2/TC7 cells; format: cell-based, human
Method: Human fibroblast cells were kindly provided by Dr. Julio Montoya (Unidad de Bioquímica, Facultad de Veterinaria, Universidad de Zaragoza, Spain). Caco-2 cells (passages 40–70) and fibroblasts (passages 10–30) were maintained in a humidified atmosphere of 5% CO2 at 37 °C. Cells were grown in Dulbecco’s Modified Eagles medium (DMEM) (Gibco Invitrogen, Paisley, UK) supplemented with 20% fetal bovine serum (FBS), 1% non-essential amino acids, 1% penicillin (1000 U/mL), 1% streptomycin (1000 μg/mL) and 1% amphotericin (250 U/mL). […] Caco-2 cells were sub-cultured on 25 cm^2 plastic flasks at a density of 1.2 × 10^4 cells/cm^2, while fibroblasts were sub-cultured on 75 cm^2 plastic flasks at a density of 1 × 10^4 cells/cm^2. Culture medium was replaced every 2 days.
(§1) Gold complex was diluted in dimethyl sulfoxide (DMSO) to a stock solution at 20 mM and then re-diluted to a working solution at 2.5 mM before diluting it in cell culture medium to treat cells at desired concentrations.
The influence of hyperthermia was studied by incubating cells at 40 °C for 1 h immediately after treating them with the gold complexes.
For cytotoxicity screening assays, Caco-2 cells were seeded in 96-well plates at a density of 4 × 10^3 cells/well. Culture medium was replaced with medium containing drug panel 24 h post-seeding and cells were incubated for 72 h. In fibroblasts, culture medium containing metal gold complexes was added 10 days post-seeding. Antiproliferative effect was measured with MTT assay as previously described by Mármol et al.. […] To determine the selectivity index (SI) the IC50 value in fibroblasts was divided by IC50 value in Caco-2, obtaining a ratio cancerous/normal cells toxicity.

Human fibroblast cells = test: MTT cytotoxicity assay on fibroblasts; format: cell-based; settings: for fibroblasts viability when treated at the IC50 value in Caco-2: 3a 2.5 µM, 3b 5.1 µM, 2a 12.3 µM, 2b 10.5 µM; for IC50: MTT, mean ± SE
Method: Human Caco-2 cell line (TC7 clone) was kindly provided by Dr. Edith Brot-Laroche (Université Pierre et Marie Curie-Paris 6, UMR S 872, Les Cordeliers, France). Human fibroblast cells were kindly provided by Dr. Julio Montoya (Unidad de Bioquímica, Facultad de Veterinaria, Universidad de Zaragoza, Spain). Caco-2 cells (passages 40–70) and fibroblasts (passages 10–30) were maintained in a humidified atmosphere of 5% CO2 at 37 °C. Cells were grown in Dulbecco’s Modified Eagles medium (DMEM) (Gibco Invitrogen, Paisley, UK) supplemented with 20% fetal bovine serum (FBS), 1% non-essential amino acids, 1% penicillin (1000 U/mL), 1% streptomycin (1000 μg/mL) and 1% amphotericin (250 U/mL). The cells were passaged enzymatically with 0.25% trypsin-1 mM EDTA. Caco-2 cells were sub-cultured on 25 cm^2 plastic flasks at a density of 1.2 × 10^4 cells/cm^2, while fibroblasts were sub-cultured on 75 cm^2 plastic flasks at a density of 1 × 10^4 cells/cm^2. Culture medium was replaced every 2 days.
as §1
For cytotoxicity screening assays, Caco-2 cells were seeded in 96-well plates at a density of 4 × 10^3 cells/well. Culture medium was replaced with medium containing drug panel 24 h post-seeding and cells were incubated for 72 h. In fibroblasts, culture medium containing metal gold complexes was added 10 days post-seeding. Antiproliferative effect was measured with MTT assay as previously described by Mármol et al.. Absorbance at 540/620 nm was measured with SPECTROstar Nano (BMG Labtech). To determine the selectivity index (SI) the IC50 value in fibroblasts was divided by IC50 value in Caco-2, obtaining a ratio cancerous/normal cells toxicity.

[1] = Distribution coefficient (logD7.4), shake-flask n-octanol/buffered water; format: physicochemical; settings: n-octanol/phosphate buffered saline pH 7.4, shake-flask
Method: The n-octanol-water coefficients of the phosphane derivatives were determined as previously reported using a shake-flask method. Briefly: Buffered-saline distilled water (100 mL, phosphate buffer [PO4^3−] = 10 mM, [NaCl] = 0.15 M, pH 7.4) and n-octanol (100 mL) were shaken together for 72 h to allow saturation of both phases. 1 mg of the complexes was dissolved in 5 mL of the aqueous phase and 5 mL of the organic phase were added, mixing for 10 min. The concentration of the complexes in the organic and aqueous phases were then determined using UV absorbance spectroscopy. LogD7.4 = log{[compound(organic phase)]/[compound(aqueous phase)]}.
The lipophilicity can be measured by the partition coefficient water/n-octanol, logD, by experimental procedures such as the shake flask method, which affords the distribution of the drug between an equal amount of n-octanol and water (or buffered aqueous solution).

[2] = Homo sapiens, Caco2/TC7, read-out: IC50 Caco-2/TC7 40 °C
[3] = 72 h, MTT, 37 °C, mean ± SE, read-out: IC50 Caco-2/TC7 37 °C
[4] = read-out: IC50 Caco-2/TC7 40 °C, 72 h, MTT, 1 h at 40 °C immediately after treatment (hyperthermia), mean ± SE

Compound | TrxR1 activity related to control (Recombinant Human TrxR1) | IC50 (Caco-2/TC7 cells) [µM] | IC50 (Caco-2/TC7 cells; [2]) [µM] | IC50 (Caco-2/TC7 cells; [3]) [µM] | IC50 (Caco-2/TC7 cells; [4]) [µM] | fibroblasts viability when treated at the IC50 value in Caco-2 (Human fibroblast cells) | Selectivity Index (SI) (Human fibroblast cells; IC50 fibroblasts/IC50 Caco-2) | IC50 (Human fibroblast cells) [µM] | logD7.4 [1]
CC(=O)OC[C@H]1O[C@@H]([S-])[C@H](OC(C)=O)[C@@H](OC(C)=O)[C@@H]1OC(C)=O.CCP(CC)CC.[Au+] [auranofin, reference compound] | Inhibitory effect |  |  |  |  |  |  |  | 
CCCCCCCC[N+]12CN3CN(CP(C3)C1)C2 [La, [PTA-CH2(CH2)6CH3]I] |  | 49.32 ± 0.02 | 47.1 ± 0.92 |  |  |  |  |  | 
CCCCCCCC[N+]12CN3CN(C1)C[P+]([Au-2]([Cl])[P+]14CN5CN(C[N+](CCCCCCCC)(C5)C1)C4)(C3)C2.[I-].[I-] [Complex 2a, [AuCl(PTA-CH2(CH2)6CH3)2]I2] |  |  |  | 12.3 ± 1.18 | 10.4 ± 0.51 | nearly two-fold reduction in the viability of fibroblasts | 1.09 | 13.5 ± 0.97 | −0.12
FC(F)(F)C(F)(F)C(F)(F)C(F)(F)C(F)(F)C(F)(F)CC[N+]12CN3CN(CP(C3)C1)C2 [Lb, [PTA-CH2CH2(CF2)5CF3]TfO] |  | 27.2 ± 7.56 | 24 ± 6.6 |  |  |  |  |  | 
FC(F)(F)C(F)(F)C(F)(F)C(F)(F)C(F)(F)C(F)(F)CC[N+]12CN3CN(C1)C[P+]([Au-2]([Cl])[P+]14CN5CN(C[N+](CCC(F)(F)C(F)(F)C(F)(F)C(F)(F)C(F)(F)C(F)(F)F)(C5)C1)C4)(C3)C2.O=S(=O)([O-])C(F)(F)F.O=S(=O)([O-])C(F)(F)F [Complex 2b, [AuCl(PTA-CH2CH2(CF2)5CF3)2](TfO)2] |  |  |  | 10.7 ± 0.6 | 9 ± 0.39 | nearly two-fold reduction in the viability of fibroblasts |  | 11.6 ± 1.05 | 0.82
FC(F)(F)C(F)(F)C(F)(F)C(F)(F)C(F)(F)C(F)(F)CC[N+]12CN3CN(C1)C[PH]([Au][Cl])(C3)C2.O=S(=O)([O-])C(F)(F)F [Complex 1b, [AuCl(PTA-CH2CH2(CF2)5CF3)]TfO] |  |  |  | 5.98 ± 1.8 | 4.46 ± 0.79 |  |  |  | 0.63
